# Values of other authors, collected in article PMC6931083 (Journal of Pharmaceutical Analysis, 2019).
# Conditions: ref 6 (Hentz et al.)
substance,measurement,value
A1 conjugated FITC-insulin: literature (Hentz et al.) FITC-insulin conjugated at A1,Decrease in biological activity as compared to the native insulin,10%
"di-conjugated FITC-insulin: di-conjugated FITC-insulin at B1 and A1 (literature value, Hentz et al.)",Decrease in biological activity as compared to the native insulin,100%
mono-conjugated FITC-insulin (tagged at B1 position): literature (Hentz et al.) mono-conjugated FITC-insulin tagged at B1 position,Biological activity compared to the native insulin,same biological activity as the native insulin
